Here are results for 1 molecule from publication PMC5635026, “Homo-PROTACs: bivalent small-molecule dimerizers of the VHL E3 ubiquitin ligase to induce self-degradation” (Nature Communications, 2017).

The subject of test [1] is Hdy-HIF-1α. Description: Immunoblot of HIF-1α / hydroxylated HIF-1α levels in HeLa cells. Type of test: cell-based, Human. Here is the method: (§1) Cell culture. Human cell lines HeLa, U2OS and HEK 293, purchased from ATCC, were propagated in DMEM supplemented with 10% fetal bovine serum (FBS), L- glutamine, 100 μg ml^−1 of penicillin/streptomycin at 37 °C and 5% CO2. Cells were maintained for no more than 30 passages. All cell lines were routinely tested for mycoplasma contamination using MycoAlert kit from Lonza. For compound treatment experiments, cells were transferred in six-well plates with either 3 × 10^5 or 5 × 10^5 cells per well in 2 ml of media. At 80% confluence, cells were treated with compounds at the desired concentration, reaching final DMSO concentration of 0.1% v/v. Cells were incubated at 37 °C and 5% CO2 for the desired time before harvesting.
(§2) Immunoblotting. Cells were lysed in lysis buffer (20 mM Tris pH 8, 150 mM NaCl, 1% Triton × 100) and a protease inhibitor cocktail (Roche) per 10 ml buffer. For protein extracts, the dishes were placed on ice. The media was aspirated and the tissue layer washed twice with ice-cold phosphate buffer saline (PBS). Lysis buffer (120 μl) was added and the cells detached from the surface with a cell scraper. After removal of the insoluble fraction by centrifugation, the protein concentration of the supernatant was determined by Pierce™ Coomassie (Bradford) Protein Assay Kit. Protein extracts were fractionated by SDS-PAGE on 4–12% Tris-Acetate NuPage® Novex® (Life Technologies) polyacrylamide gels and transferred to a nitrocellulose membrane using wet transfer. The membrane was then blocked with 5 % w/v Bovine serum albumin (BSA) in Tris-buffered saline (TBS) with 0.1% w/v Tween-20. For detecting proteins the following primary antibodies in the given concentrations were used: anti-β-Actin (Cell Signaling Technology, 4970S, 13E5) 1:2000, anti-VHL (Cell Signaling Technology, #68547) 1:1000, anti-Hif-1α (BD Biosciences, 610959, clone 54) 1:1,000, anti-hydroxy-HIF-1α (Hyp564) (Cell Signaling Techonology; #3434) 1:1,000, anti-PHD2 (Bethyl Laboratories; A300-322A) 1:1,000, anti-PHD3 (Bethyl Laboratories; A300-327A) 1:1000, anti-CRBN (Proteintech; 11435-1-AP) 1:1,000. Following incubation with a horseradish peroxidase-conjugated secondary antibody (Cell Signaling Technology), the signal was developed using enhanced chemiluminescence (ECL) Western Blotting Detection Kit (Amersham) on Amersham Hyperfilm ECL film (Amersham). Band quantification was performed using ImageJ software and reported as relative amount as ratio of the each protein band relative to the lane’s loading control. The values obtained were then normalized to 0.1% DMSO vehicle control. See Supplementary Fig. 12 for full-scanned images of western-blots shown in the main text figures.
A general note: Immunoblotting shows a protein as a band on a membrane.

Test [2] has as its system HIF-1α. Briefly: TMT MS proteomics in HeLa cells, HIF-1α level. In kind it is cell-based, Human. Particulars: 150 µM, 10 h. The procedure:
MS proteomics. Sample preparation. HeLa cells were seeded at 5 × 10^6 on a 10 cm plate 16 h before treatment. […] Cells were incubated at 37 °C and 5% CO2 for 10 h before harvesting. Cells were placed on ice and medium was removed and cells were washed twice with cold PBS. Cells were lysed in 0.5 ml of 100 mM Tris pH 8.0, 4% (w/v) SDS supplemented with protease inhibitor cocktail (Roche). The lysate was pulse sonicated briefly and then centrifuged at 17,000 × g for 15 min at 4 °C. The supernatant fraction of cell extract was snap-frozen in liquid nitrogen and stored in −80 °C freezer. Further sample processing, digestion, desalting, labeling and fractionation were performed as previously described.
nLC-MS/MS analysis. The TMT 10plex fractions were first analyzed as previously described. Briefly, the TMT 10plex fractions were analyzed sequentially on a Q Exactive HF Hybrid Quadrupole-Orbitrap Mass Spectrometer (Thermo Scientific) coupled to an UltiMate 3000 RSLCnano UHPLC system (Thermo Scientific) and EasySpray column (75 μm × 50 cm, PepMap RSLC C18 column, 2 μm, 100 Å, Thermo Scientific). The MS2 isolation window was set to 0.4 Da and the resolution set at 120,000. MS2 resolution was set at 60,000. […] After the first analysis, the TMT labeled fractions were re-analyzed on the Q-Exactive HF using the same instrument settings and a target list generated from a theoretical trypsin digest of VHL. […]

Test [3] deals with T1, pVHL19 (Homo sapiens, UniProt P40337). Also noted: made in house; method as in PMID 25166285. Particulars: ITC, ref [18]; cited from earlier work. In general terms: ITC needs no label: the signal is the heat of the interaction.
Target sequence in this assay (P40337 54-213): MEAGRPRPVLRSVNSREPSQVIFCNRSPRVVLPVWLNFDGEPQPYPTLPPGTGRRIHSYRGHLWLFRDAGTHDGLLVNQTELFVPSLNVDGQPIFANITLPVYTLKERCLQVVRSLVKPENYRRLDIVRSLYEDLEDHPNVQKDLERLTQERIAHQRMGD
Target sequence in this assay (Q15369 17-112 partner limits assumed): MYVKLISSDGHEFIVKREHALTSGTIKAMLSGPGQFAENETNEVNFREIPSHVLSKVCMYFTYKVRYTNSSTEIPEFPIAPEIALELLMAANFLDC
Target sequence in this assay (Q15370 1-104 partner limits assumed): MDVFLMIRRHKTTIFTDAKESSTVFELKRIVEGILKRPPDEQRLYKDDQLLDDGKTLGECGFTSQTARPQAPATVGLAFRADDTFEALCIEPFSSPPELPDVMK
The target of test [4] is pVHL30 (Homo sapiens, UniProt P40337). Briefly: Immunoblot of pVHL30 protein level in HeLa cells after compound treatment. Type of test: cell-based. Also noted: endogenous in cells; host or cells: HeLa. Particulars: 10 h, read-out: pVHL30 band quantification normalized to 0.1% DMSO. Here is the method: as §1, §2
Test [5] addresses T1, pVHL19. Briefly: Immunoblot of pVHL19 protein level in HeLa cells after compound treatment. Type of test: cell-based. Also noted: endogenous in cells; host or cells: HeLa. Particulars: 10 h, read-out: pVHL19 band quantification normalized to 0.1% DMSO. Here is the method:
as §1, §2
Target sequence in this assay (P40337 54-213): as the sequence (P40337 54-213) above
Target sequence in this assay (Q15369 whole entry partner): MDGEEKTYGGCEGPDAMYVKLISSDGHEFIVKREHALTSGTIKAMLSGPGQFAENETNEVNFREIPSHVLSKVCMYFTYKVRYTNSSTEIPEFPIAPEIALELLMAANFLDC
Target sequence in this assay (Q15370 whole entry partner): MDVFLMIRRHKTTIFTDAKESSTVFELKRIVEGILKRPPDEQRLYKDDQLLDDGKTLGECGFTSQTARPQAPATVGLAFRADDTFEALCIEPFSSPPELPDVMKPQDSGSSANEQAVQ

Molecules are shown by their SMILES.

pVHL30, sequence (P40337 whole entry): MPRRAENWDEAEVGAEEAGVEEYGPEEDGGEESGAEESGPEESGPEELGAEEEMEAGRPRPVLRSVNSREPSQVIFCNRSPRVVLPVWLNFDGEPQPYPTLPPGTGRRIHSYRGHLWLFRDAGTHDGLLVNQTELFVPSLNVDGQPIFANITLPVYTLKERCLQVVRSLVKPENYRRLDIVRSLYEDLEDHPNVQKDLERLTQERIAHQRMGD

Consider `CC(=O)N[C@H](C(=O)N1C[C@H](O)C[C@H]1C(=O)NCc1ccc(-c2scnc2C)cc1)C(C)(C)C` [VH032, reference compound], for which the “effect on HIF-1α at 1 µM” value in test [1] (HeLa, 1 µM) is “completely ineffective”. Moreover, the “concentration at which active in cells” value in test [1] (inhibitory concentration of the ligand alone in cells) is ~ 100 µM. Further, the “protein levels of HIF-1α” value in test [2] is on record as “increased”. In addition, in test [3], the ΔG result is listed as “–9.17 ± 0.02 kcal mol^−1”, the ΔH entry is reported as “–5.53 ± 0.01 kcal mol^−1” and the “−TΔS” value is “–3.65 ± 0.02 kcal mol^−1”. The remaining pVHL30 protein level at 150 µM in test [4] came out at 127%. The remaining activity at 150 µM in test [5] was determined as 113%.
